Laboratory results as given in the supplement of paper PMC10307832.

What was measured:
Test in all cases: relative viability (nuclei count vs DMSO), 5 days (fraction); higher = more cells survive
ABC-1 = tested on: ABC-1
Outline: (§1)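 Relative viability divides the nuclei count in treated wells by that in vehicle wells. Lung cancer cell lines were seeded in 1536-well plates, dosed by pin tool the next day, and fixed and stained after 5 days in one step with final 0.05% Triton X-100, 1% formaldehyde and 1 ug/ml Hoechst. Dosing was a single drug or a fixed anchor-drug dose plus five library-drug doses (not always all listed) in √10 steps, and values are medians of duplicate plates imaged at 4×.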

COR-L23 = tested on: COR-L23
Outline: as §1

EPLC-272H = tested on: EPLC-272H
Outline: as §1

HARA = tested on: HARA
Outline: as §1

HCC-15 = tested on: HCC-15
Outline: as §1

HCC-44 = tested on: HCC-44
Outline: as §1

HOP-62 = tested on: HOP-62
Outline: as §1

LC-2-ad = tested on: LC-2-ad
Outline: as §1

LU99A = tested on: LU99A
Outline: as §1

NCI-H1355 = tested on: NCI-H1355
Outline: as §1

NCI-H1651 = tested on: NCI-H1651
Outline: as §1

NCI-H1915 = tested on: NCI-H1915
Outline: as §1

NCI-H1993 = tested on: NCI-H1993
Outline: as §1

NCI-H2023 = tested on: NCI-H2023
Outline: as §1

NCI-H2085 = tested on: NCI-H2085
Outline: as §1

NCI-H2126 = tested on: NCI-H2126
Outline: as §1

NCI-H2347 = tested on: NCI-H2347
Outline: as §1

NCI-H650 = tested on: NCI-H650
Outline: as §1

NCI-H838 = tested on: NCI-H838
Outline: as §1

PC-14 = tested on: PC-14
Outline: as §1

SW 1573 = tested on: SW 1573
Outline: as §1

UMC-11 = tested on: UMC-11
Outline: as §1

How did the relative viability (ABC-1; first compound 0.005 µM) turn out when `COc1cc2nccc(Oc3ccc(NC(=O)Nc4cc(C)on4)c(Cl)c3)c2cc1OC` [Tivozanib] + Cc1nc(NC(=O)N2CCC[C@H]2C(N)=O)sc1-c1ccnc(C(C)(C)C(F)(F)F)c1 [Alpelisib] (partner 2 µM) was run?
The relative viability was 0.971.

What about the relative viability (ABC-1; first compound 0.01581 µM) of the same compound?
Its relative viability is 0.99.

What about the relative viability (ABC-1; first compound 0.05 µM) of the same compound?
Its relative viability is 0.917.

What about the relative viability (ABC-1; first compound 0.1581 µM) of the same compound?
The relative viability was 1.27.

What about the relative viability (ABC-1; first compound 0.5 µM) of the same compound?
Its relative viability is 1.08.

What about the relative viability (COR-L23; first compound 0.005 µM) of the same compound?
Its relative viability is 0.687.

What about the relative viability (COR-L23; first compound 0.01581 µM) of the same compound?
The relative viability was 0.778.

What about the relative viability (COR-L23; first compound 0.05 µM) of the same compound?
The relative viability was 0.931.

What about the relative viability (COR-L23; first compound 0.1581 µM) of the same compound?
Its relative viability is 0.709.

What about the relative viability (COR-L23; first compound 0.5 µM) of the same compound?
Its relative viability is 0.582.

And the relative viability (EPLC-272H; first compound 0.005 µM)?
Its relative viability is 0.964.

And the relative viability (EPLC-272H; first compound 0.01581 µM)?
The relative viability was 0.918.

What about the relative viability (EPLC-272H; first compound 0.05 µM) of the same compound?
The relative viability was 1.05.

And the relative viability (EPLC-272H; first compound 0.1581 µM)?
The relative viability was 0.723.

And the relative viability (EPLC-272H; first compound 0.5 µM)?
Its relative viability is 0.862.

And the relative viability (HARA; first compound 0.005 µM)?
Its relative viability is 0.911.

What about the relative viability (HARA; first compound 0.01581 µM) of the same compound?
Its relative viability is 0.838.

What about the relative viability (HARA; first compound 0.05 µM) of the same compound?
The relative viability was 0.908.

And the relative viability (HARA; first compound 0.1581 µM)?
The relative viability was 0.877.

And the relative viability (HARA; first compound 0.5 µM)?
The relative viability was 0.798.

And the relative viability (HCC-15; first compound 0.005 µM)?
Its relative viability is 0.917.

What about the relative viability (HCC-15; first compound 0.01581 µM) of the same compound?
The relative viability was 0.839.

And the relative viability (HCC-15; first compound 0.05 µM)?
Its relative viability is 0.943.

And the relative viability (HCC-15; first compound 0.1581 µM)?
Its relative viability is 0.826.

And the relative viability (HCC-15; first compound 0.5 µM)?
Its relative viability is 0.81.

What about the relative viability (HCC-44; first compound 0.005 µM) of the same compound?
Its relative viability is 0.815.

What about the relative viability (HCC-44; first compound 0.01581 µM) of the same compound?
The relative viability was 0.758.

What about the relative viability (HCC-44; first compound 0.05 µM) of the same compound?
The relative viability was 0.803.

What about the relative viability (HCC-44; first compound 0.1581 µM) of the same compound?
Its relative viability is 0.756.

What about the relative viability (HCC-44; first compound 0.5 µM) of the same compound?
The relative viability was 0.831.

And the relative viability (HOP-62; first compound 0.005 µM)?
The relative viability was 0.72.

What about the relative viability (HOP-62; first compound 0.01581 µM) of the same compound?
The relative viability was 0.729.

What about the relative viability (HOP-62; first compound 0.05 µM) of the same compound?
The relative viability was 1.06.

What about the relative viability (HOP-62; first compound 0.1581 µM) of the same compound?
Its relative viability is 0.483.

What about the relative viability (HOP-62; first compound 0.5 µM) of the same compound?
Its relative viability is 0.901.

What about the relative viability (LC-2-ad; first compound 0.005 µM) of the same compound?
Its relative viability is 0.902.

What about the relative viability (LC-2-ad; first compound 0.01581 µM) of the same compound?
The relative viability was 0.809.

What about the relative viability (LC-2-ad; first compound 0.05 µM) of the same compound?
Its relative viability is 0.8.

What about the relative viability (LC-2-ad; first compound 0.1581 µM) of the same compound?
The relative viability was 0.629.

What about the relative viability (LC-2-ad; first compound 0.5 µM) of the same compound?
Its relative viability is 0.654.

And the relative viability (LU99A; first compound 0.005 µM)?
The relative viability was 0.484.

What about the relative viability (LU99A; first compound 0.01581 µM) of the same compound?
Its relative viability is 0.555.

And the relative viability (LU99A; first compound 0.05 µM)?
The relative viability was 0.521.

What about the relative viability (LU99A; first compound 0.5 µM) of the same compound?
Its relative viability is 0.469.

What about the relative viability (NCI-H1355; first compound 0.005 µM) of the same compound?
The relative viability was 0.766.

What about the relative viability (NCI-H1355; first compound 0.01581 µM) of the same compound?
Its relative viability is 0.693.

What about the relative viability (NCI-H1355; first compound 0.05 µM) of the same compound?
The relative viability was 0.887.

And the relative viability (NCI-H1355; first compound 0.5 µM)?
The relative viability was 0.882.

And the relative viability (NCI-H1651; first compound 0.005 µM)?
Its relative viability is 0.985.

What about the relative viability (NCI-H1651; first compound 0.01581 µM) of the same compound?
Its relative viability is 0.842.

What about the relative viability (NCI-H1651; first compound 0.05 µM) of the same compound?
The relative viability was 0.781.

What about the relative viability (NCI-H1651; first compound 0.1581 µM) of the same compound?
Its relative viability is 0.879.

And the relative viability (NCI-H1651; first compound 0.5 µM)?
Its relative viability is 0.889.

What about the relative viability (NCI-H1915; first compound 0.005 µM) of the same compound?
Its relative viability is 1.08.

And the relative viability (NCI-H1915; first compound 0.01581 µM)?
Its relative viability is 1.04.

And the relative viability (NCI-H1915; first compound 0.05 µM)?
The relative viability was 1.11.

What about the relative viability (NCI-H1915; first compound 0.1581 µM) of the same compound?
The relative viability was 0.99.

What about the relative viability (NCI-H1915; first compound 0.5 µM) of the same compound?
The relative viability was 0.961.

And the relative viability (NCI-H1993; first compound 0.005 µM)?
Its relative viability is 0.657.

What about the relative viability (NCI-H1993; first compound 0.01581 µM) of the same compound?
Its relative viability is 0.741.

And the relative viability (NCI-H1993; first compound 0.05 µM)?
The relative viability was 0.688.

What about the relative viability (NCI-H1993; first compound 0.1581 µM) of the same compound?
Its relative viability is 0.688.

And the relative viability (NCI-H1993; first compound 0.5 µM)?
Its relative viability is 0.695.

And the relative viability (NCI-H2023; first compound 0.005 µM)?
Its relative viability is 0.553.

And the relative viability (NCI-H2023; first compound 0.01581 µM)?
The relative viability was 0.578.

What about the relative viability (NCI-H2023; first compound 0.05 µM) of the same compound?
The relative viability was 0.634.

What about the relative viability (NCI-H2023; first compound 0.1581 µM) of the same compound?
Its relative viability is 0.589.

And the relative viability (NCI-H2023; first compound 0.5 µM)?
The relative viability was 0.61.

And the relative viability (NCI-H2085; first compound 0.005 µM)?
The relative viability was 1.02.

What about the relative viability (NCI-H2085; first compound 0.01581 µM) of the same compound?
The relative viability was 0.978.

And the relative viability (NCI-H2085; first compound 0.05 µM)?
Its relative viability is 0.905.

And the relative viability (NCI-H2085; first compound 0.1581 µM)?
The relative viability was 0.963.

And the relative viability (NCI-H2085; first compound 0.5 µM)?
Its relative viability is 0.642.

And the relative viability (NCI-H2126; first compound 0.005 µM)?
The relative viability was 0.708.

What about the relative viability (NCI-H2126; first compound 0.01581 µM) of the same compound?
Its relative viability is 0.757.

And the relative viability (NCI-H2126; first compound 0.05 µM)?
Its relative viability is 0.763.

What about the relative viability (NCI-H2126; first compound 0.1581 µM) of the same compound?
The relative viability was 0.53.

What about the relative viability (NCI-H2126; first compound 0.5 µM) of the same compound?
Its relative viability is 0.734.

And the relative viability (NCI-H2347; first compound 0.005 µM)?
Its relative viability is 1.01.

What about the relative viability (NCI-H2347; first compound 0.01581 µM) of the same compound?
Its relative viability is 1.03.

And the relative viability (NCI-H2347; first compound 0.05 µM)?
Its relative viability is 1.03.

And the relative viability (NCI-H2347; first compound 0.1581 µM)?
The relative viability was 1.1.

What about the relative viability (NCI-H2347; first compound 0.5 µM) of the same compound?
The relative viability was 0.987.

What about the relative viability (NCI-H650; first compound 0.005 µM) of the same compound?
The relative viability was 1.06.

And the relative viability (NCI-H650; first compound 0.01581 µM)?
The relative viability was 1.13.

And the relative viability (NCI-H650; first compound 0.05 µM)?
Its relative viability is 1.1.

And the relative viability (NCI-H650; first compound 0.1581 µM)?
Its relative viability is 1.02.

And the relative viability (NCI-H650; first compound 0.5 µM)?
Its relative viability is 0.967.

What about the relative viability (NCI-H838; first compound 0.005 µM) of the same compound?
Its relative viability is 0.984.

What about the relative viability (NCI-H838; first compound 0.01581 µM) of the same compound?
Its relative viability is 1.04.

What about the relative viability (NCI-H838; first compound 0.05 µM) of the same compound?
The relative viability was 1.04.

And the relative viability (NCI-H838; first compound 0.5 µM)?
Its relative viability is 1.03.

What about the relative viability (PC-14; first compound 0.005 µM) of the same compound?
The relative viability was 0.89.

And the relative viability (PC-14; first compound 0.01581 µM)?
Its relative viability is 0.993.

What about the relative viability (PC-14; first compound 0.05 µM) of the same compound?
Its relative viability is 1.07.

What about the relative viability (PC-14; first compound 0.1581 µM) of the same compound?
Its relative viability is 0.911.

What about the relative viability (PC-14; first compound 0.5 µM) of the same compound?
Its relative viability is 0.873.

And the relative viability (SW 1573; first compound 0.005 µM)?
The relative viability was 0.796.

What about the relative viability (SW 1573; first compound 0.01581 µM) of the same compound?
Its relative viability is 0.825.

And the relative viability (SW 1573; first compound 0.05 µM)?
The relative viability was 0.784.

What about the relative viability (SW 1573; first compound 0.1581 µM) of the same compound?
Its relative viability is 0.639.

What about the relative viability (SW 1573; first compound 0.5 µM) of the same compound?
The relative viability was 0.776.

What about the relative viability (UMC-11; first compound 0.005 µM) of the same compound?
The relative viability was 1.11.

What about the relative viability (UMC-11; first compound 0.01581 µM) of the same compound?
The relative viability was 0.846.

And the relative viability (UMC-11; first compound 0.05 µM)?
The relative viability was 0.964.

And the relative viability (UMC-11; first compound 0.5 µM)?
Its relative viability is 0.959.
